We go through 1 compound from paper PMC9599704, “Liposomal Entrapment or Chemical Modification of Relaxin2 for Prolongation of Its Stability and Biological Activity” (Biomolecules, 2022).

This data set can be described thus: in vitro. As to the method:
Samples were placed separately in hermetically sealed screw-tubes (to avoid evaporation) and then in an orbital incubator (Stuart S1500, UK) set at 50 rpm and 37 °C, for a period of up to 30 d. […] For quantification of free or liposomal peptides in the presence of 80% FBS, serum proteins precipitation was accomplished by mixing one volume of sample (100 μL) with three volumes (300 μL) of acidified isopropanol (with 0.1% TFA), followed by vortex agitation and centrifugation at 15000 rpm for 15 min. Next, the supernatant was transferred to a new eppendorf tube and 400 μL of HEPES (pH 5.0) were added, followed by vigorous vortex for 1 min, in order to retrieve the peptide. Finally, the samples were analyzed by HPLC, based on a calibration curve constructed at the exact same conditions as the samples to be analyzed.
For direct comparison of the stability of the different peptides, the results were normalized and expressed as the percentage of the corresponding initial peptide concentration measured at time point 0, for each peptide and each formulation (solution or liposome). Experiments were carried out in triplicate, and the results are expressed as the mean value ± standard deviation.

What is called half-life is the time needed for the level to fall by half in the phase considered. Lower therefore signals fast loss.

`CC[C@H](C)[C@@H]1NC(=O)[C@H](C)NC(=O)[C@H]([C@@H](C)CC)NC(=O)[C@H](CCC(N)=O)NC(=O)[C@H](C)NC(=O)[C@H](CCCNC(=N)N)NC(=O)[C@H](C(C)C)NC(=O)[C@H](CC(C)C)NC(=O)[C@H](CCC(=O)O)NC(=O)[C@H](CCCNC(=N)N)NC(=O)CNC(=O)[C@@H](NC(=O)[C@H](CC(C)C)NC(=O)[C@H](CCCCN)NC(=O)[C@@H](NC(=O)[C@@H](NC(=O)[C@H](CCC(=O)O)NC(=O)[C@H](CCC(=O)O)NC(=O)[C@H](CCSC)NC(=O)[C@H](Cc2c[nH]c3ccccc23)NC(=O)[C@H](CO)NC(=O)[C@@H](N)CC(=O)O)C(C)C)[C@@H](C)CC)CSSC[C@@H]2NC(=O)[C@@H](NC(=O)[C@H](CCCCN)NC(=O)[C@H](CC(N)=O)NC(=O)[C@H](C)NC(=O)[C@H](CC(C)C)NC(=O)[C@H](C)NC(=O)[C@H](CO)NC(=O)[C@H](Cc3ccc(O)cc3)NC(=O)[C@H](CC(C)C)NC(=O)[C@@H]3CCC(=O)N3)CSSC[C@H](NC(=O)CNC(=O)[C@H](C(C)C)NC(=O)[C@H](Cc3c[nH]cn3)NC2=O)C(=O)N[C@@H]([C@@H](C)O)C(=O)N[C@@H](CCCCN)C(=O)N[C@@H](CCCNC(=N)N)C(=O)N[C@@H](CO)C(=O)N[C@@H](CC(C)C)C(=O)N[C@@H](C)C(=O)N[C@@H](CCCNC(=N)N)C(=O)N[C@@H](Cc2ccccc2)C(=O)N[C@H](C(=O)O)CSSC[C@@H](C(=O)NCC(=O)N[C@@H](CC[S+](C)[O-])C(=O)N[C@@H](CO)C(=O)N[C@H](C(=O)N[C@@H](Cc2c[nH]c3ccccc23)C(=O)N[C@@H](CO)C(=O)O)[C@@H](C)O)NC1=O` (some centres unmarked) [O-RLX2, Met (O)^25-human relaxin 2]: the “peptide remaining after 10 d of incubation in FBS” value (FBS 80% v/v, 37 °C, 10 d, 58 ± 5.0 μg/mL peptide, HPLC, % of initial concentration, triplicate) is on record as “all the free O-RLX2 peptide was degraded”. Under “fetal bovine serum (FBS) 80% v/v”, this compound gave a half-life of 83.5 h.
